Assay results as given in patent US12024716B2, “Compositions and methods of expansion of T cell populations” (THE BOARD OF TRUSTEES OF THE LELAND STANFORD JUNIOR …, priority 2018, dated 2024).
Read-outs that look alike come from different tables or passages of the source.

How the values were obtained:
pRPS6 = settings: gated on CFSE+CD8+ T cells
From the text: (§1) Mass cytometry data were normalized and debarcoded.

[1] = tested on: human naïve CFSE+ CD8+ T cells; settings: for CFSE^+ CD8^+ T cells (%)^*: live and non-apoptotic gates not applied
From the text: Peripheral blood mononuclear cells (PBMCs) were isolated from Trima Accel leukocyte reduction system (LRS) chambers (Terumo BCT, Lakewood, CO) of de-identified healthy blood donors (Stanford Blood Center, Palo Alto, CA) using Ficoll-Paque Plus (GE Healthcare, Chicago, IL, USA) density gradient centrifugation according to manufacturer's instructions. For long-term storage, PBMCs were resuspended in FBS with 10% DMSO and stored in liquid nitrogen at density 1-5×10^7 cells/mL. Cryopreserved PBMCs were thawed into cell culture medium (CCM; RPMI 1640 containing 10% FBS, 1× L-glutamine, and 1× penicillin/streptomycin; Thermo Fisher Scientific Waltham, MA, USA) supplemented with 25 U/mL benzonase (SIGMA-ALDRICH®, St. Louis, MO, USA). Cells were then pelleted for 5 minutes at 250×g, resuspended in 10 mL CCM, rested at 37° C., 5% CO2 for 60 minutes, filtered through a 40 μm strainer, and counted. Where indicated, naïve T cells were enriched using Naïve Pan T Cell Isolation Kit (Miltenyi Biotec #130-097-095, Bergisch Gladbach, Germany) according to manufacturer's instructions.
Unless otherwise noted, carboxyfluorescein succinimidyl ester (CFSE) labeling was performed as described by Quah and Parish16, 17. Briefly, 50 μg carboxyfluorescein diacetate succinimidyl ester (CFDA-SE) was reconstituted in 18 μL DMSO (CellTrace CFSE Cell Proliferation Kit, Thermo Fisher Scientific #C34554) to create a 5 mM stock immediately prior to labeling. Cells were resuspended in 1 mL warm CCM and transferred into a new 15 mL Falcon tube lying horizontally. A drop containing 110 μL warm PBS was placed on a side of the tube, and 17.6 μL of 5 mM CFDA-SE was diluted into the drop. The tube was then quickly capped and turned upside right while being vortexed gently, yielding a final concentration of 80 μM CFDA-SE. Cells were incubated for 5 minutes at room temperature, quenched by adding 9 mL warm CCM, and washed twice with 10 mL warm CCM. When only naïve T cells were labeled with CFSE, they were combined with the CFSE-negative PBMC fraction devoid of naïve T cells after labeling to restore original cell proportions. All centrifuging steps for live cells were done for 5 minutes at 250 g, 37° C. CFSE and labeled cells were protected from light throughout the experiment. During protocol optimization, the above labeling protocol for 0.1-10×10^7 cells and CFSE concentrations in range of 0.2 μM to 320 μM was tested. Long-term cell viability and proliferation were assessed. Manufacturer's labeling protocol for CFSE concentrations 0.2 μM to 20 μM, as well as other CFSE suppliers (BIOLEGEND® #422701, San Diego, CA, USA) were also tested.
Samples were processed as previously known in the art. To stain cells for viability, cisplatin (SIGMA-ALDRICH® #P4394) was reconstituted to 100 mM in DMSO and incubated at 37° C. for 3 days to prepare a stock solution, which was then stored in aliquots at −20° C. Cell pellets were resuspended in 1 mL PBS containing 0.5 μM cisplatin, gently vortexed, incubated 5 minutes at room temperature, quenched with 3 mL CCM, pelleted, and resuspended in 1 mL CCM. […] All centrifuging steps for fixed cells were done for 5 minutes at 600×g, 4° C. Cell pellets were optionally stored at −80° C.
as §1

[2] = tested on: human naïve CFSE+ CD8+ T cells; assay: Naïve CD8+ T-cell differentiation in REP: skewing between TSCM-like and dysfunctional phenotype (mass cytometry, force-directed graph, DPT); settings: for CD45RA^Low CD25^High (%) / CD45RA^High CD25^Low (%): gated on CFSE^+CD8^+T cells; for CD45RA^Low CD25^High (%): path toward dysfunctional phenotype; for CD45RA^High CD25^Low (%): path towards TSCM-like phenotype; for CD45RA High CD25 Low (%) / CD45RA Low CD25 High (%): gated on CFSE+CD8+ T cells
[3] = REP day 3, among CD45RA^High CD25^Low CFSE^+CD8^+T cells
[4] = REP day 3, among CD45RA^Low CD25^High CFSE^+CD8^+T cells
[5] = REP day 4, among CD45RA^High CD25^Low CFSE^+CD8^+T cells
[6] = REP day 4, among CD45RA^Low CD25^High CFSE^+CD8^+T cells
[7] = REP day 5, among CD45RA^High CD25^Low CFSE^+CD8^+T cells
[8] = REP day 5, among CD45RA^Low CD25^High CFSE^+CD8^+T cells
[9] = REP day 7, among CD45RA^High CD25^Low CFSE^+CD8^+T cells
[10] = REP day 7, among CD45RA^Low CD25^High CFSE^+CD8^+T cells
[11] = in CD45RA High CD25 Low subset of CFSE+CD8+ T cells, REP day 3
[12] = in CD45RA High CD25 Low subset of CFSE+CD8+ T cells, REP day 4
[13] = in CD45RA High CD25 Low subset of CFSE+CD8+ T cells, REP day 5
[14] = in CD45RA High CD25 Low subset of CFSE+CD8+ T cells, REP day 7
[15] = in CD45RA Low CD25 High subset of CFSE+CD8+ T cells, REP day 3
[16] = in CD45RA Low CD25 High subset of CFSE+CD8+ T cells, REP day 4
[17] = in CD45RA Low CD25 High subset of CFSE+CD8+ T cells, REP day 5
[18] = in CD45RA Low CD25 High subset of CFSE+CD8+ T cells, REP day 7

## CO[C@H]1C[C@@H]2CC[C@@H](C)[C@@](O)(O2)C(=O)C(=O)N2CCCC[C@H]2C(=O)O[C@H]([C@H](C)C[C@@H]2CC[C@@H](O)[C@H](OC)C2)CC(=O)[C@H](C)/C=C(\C)[C@@H](O)[C@@H](OC)C(=O)[C@H](C)C[C@H](C)/C=C/C=C/C=C/1C [Rapamycin, rapamycin]
pRPS6; REP day 3
  pRPS6+ (%) (first column, c2): 99.49%
  pRPS6+ (%) (second column, c5): 0.51%
pRPS6; REP day 4
  pRPS6+ (%) (first column, c2): 99.15%
  pRPS6+ (%) (second column, c5): 0.85%
pRPS6; REP day 5
  pRPS6+ (%) (first column, c2): 99.28%
  pRPS6+ (%) (second column, c5): 0.72%
pRPS6; REP day 7
  pRPS6+ (%) (first column, c2): 99.44%
  pRPS6+ (%) (second column, c5): 0.56%
[1]; REP day 3
  Apoptotic cells (% cPARP+ cells in CFSE+ CD8+ T cells): 0.43%
  Apoptotic cells (% cPARP^+ cells in CFSE^+ CD8^+T cells): 0.43%
  CFSE+ CD8+ T cells (%): 2.14%
  Dead cells (1% cisplatin+ cells in CFSE+ CD8+ T cells): 0.26%
  Dead cells (1% cisplatin^+ cells in CFSE^+ CD8^+ T cells): 0.26%
  Total CFSE+ CD8+ T cells: 0.14
  Total CFSE^+ CD8^+ T cells: 0.14
  Total cells (×10^6): 6.48 ×10^6
  CFSE^+ CD8^+ T cells (%)^*: 2.14%
[1]; [3]
  Apoptotic Cell (%): 0.53%
  Dead cells (%): 0.00%
[1]; [4]
  Apoptotic Cells (%): 0.31%
  Dead cells (%): 0.63%
[1]; REP day 4
  Apoptotic cells (% cPARP+ cells in CFSE+ CD8+ T cells): 0.85%
  Apoptotic cells (% cPARP^+ cells in CFSE^+ CD8^+T cells): 0.85%
  CFSE+ CD8+ T cells (%): 3.07%
  Dead cells (1% cisplatin+ cells in CFSE+ CD8+ T cells): 0.38%
  Dead cells (1% cisplatin^+ cells in CFSE^+ CD8^+ T cells): 0.38%
  Total CFSE+ CD8+ T cells: 0.31
  Total CFSE^+ CD8^+ T cells: 0.31
  Total cells (×10^6): 9.96 ×10^6
  CFSE^+ CD8^+ T cells (%)^*: 3.07%
[1]; [5]
  Apoptotic Cell (%): 0.59%
  Dead cells (%): 0.39%
[1]; [6]
  Apoptotic Cells (%): 0.84%
  Dead cells (%): 0.21%
[1]; REP day 5
  Apoptotic cells (% cPARP+ cells in CFSE+ CD8+ T cells): 1.07%
  Apoptotic cells (% cPARP^+ cells in CFSE^+ CD8^+T cells): 1.07%
  CFSE+ CD8+ T cells (%): 5.14%
  Dead cells (1% cisplatin+ cells in CFSE+ CD8+ T cells): 0.21%
  Dead cells (1% cisplatin^+ cells in CFSE^+ CD8^+ T cells): 0.21%
  Total CFSE+ CD8+ T cells: 0.71
  Total CFSE^+ CD8^+ T cells: 0.71
  Total cells (×10^6): 13.91 ×10^6
  CFSE^+ CD8^+ T cells (%)^*: 5.14%
[1]; [7]
  Apoptotic Cell (%): 2.33%
  Dead cells (%): 0.00%
[1]; [8]
  Apoptotic Cells (%): 0.79%
  Dead cells (%): 0.24%
[1]; REP day 7
  Apoptotic cells (% cPARP+ cells in CFSE+ CD8+ T cells): 2.16%
  Apoptotic cells (% cPARP^+ cells in CFSE^+ CD8^+T cells): 2.16%
  CFSE+ CD8+ T cells (%): 6.49%
  Dead cells (1% cisplatin+ cells in CFSE+ CD8+ T cells): 1.13%
  Dead cells (1% cisplatin^+ cells in CFSE^+ CD8^+ T cells): 1.13%
  Total CFSE+ CD8+ T cells: 1.82
  Total CFSE^+ CD8^+ T cells: 1.82
  Total cells (×10^6): 28.03 ×10^6
  CFSE^+ CD8^+ T cells (%)^*: 6.49%
[1]; [9]
  Apoptotic Cell (%): 3.47%
  Dead cells (%): 0.69%
[1]; [10]
  Apoptotic Cells (%): 1.15%
  Dead cells (%): 0.72%
[1]; [11]
  Apoptotic Cell (%): 0.53%
  Dead cells (%): 0.00%
[1]; [12]
  Apoptotic Cell (%): 0.59%
  Dead cells (%): 0.39%
[1]; [13]
  Apoptotic Cell (%): 2.33%
  Dead cells (%): 0.00%
[1]; [14]
  Apoptotic Cell (%): 3.47%
  Dead cells (%): 0.69%
[1]; [15]
  Apoptotic Cells (%): 0.31%
  Dead cells (%): 0.63%
[1]; [16]
  Apoptotic Cells (%): 0.84%
  Dead cells (%): 0.21%
[1]; [17]
  Apoptotic Cells (%): 0.79%
  Dead cells (%): 0.24%
[1]; [18]
  Apoptotic Cells (%): 1.15%
  Dead cells (%): 0.72%
[2]; REP day 3
  CD45RA^Low CD25^High (%): 27.34%
  CD45RA^High CD25^Low (%): 16.11%
  CD45RA High CD25 Low (%): 16.11%
  CD45RA Low CD25 High (%): 27.34%
[2]; REP day 4
  CD45RA^Low CD25^High (%): 30.19%
  CD45RA^High CD25^Low (%): 16.03%
  CD45RA High CD25 Low (%): 16.03%
  CD45RA Low CD25 High (%): 30.19%
[2]; REP day 5
  CD45RA^Low CD25^High (%): 43.80%
  CD45RA^High CD25^Low (%): 8.87%
  CD45RA High CD25 Low (%): 8.87%
  CD45RA Low CD25 High (%): 43.80%
[2]; REP day 7
  CD45RA^Low CD25^High (%): 21.79%
  CD45RA^High CD25^Low (%): 9.00%
  CD45RA High CD25 Low (%): 9.00%
  CD45RA Low CD25 High (%): 21.79%
